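Growth conditions: 96-well plates. Treatment: test compound, 48 hours, 5 concentrations. Analysis: linear interpolation between bracketing concentrations; unreached endpoints set to highest concentration. The concentration for full growth arrest is given as TGI.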
Columns and labels:
Experiment in all cases: NCI tumour cell line growth inhibition, 48 h
HCT-15 colon = tested on: HCT-15 colon
NCI-H226 lung = tested on: NCI-H226 lung
786-0 renal = tested on: 786-0 renal
UO-31 renal = tested on: UO-31 renal
DMS 114 small cell lung = tested on: DMS 114 small cell lung
CAKI-1 renal = tested on: CAKI-1 renal
SK-MEL-5 melanoma = tested on: SK-MEL-5 melanoma
NCI-H522 lung = tested on: NCI-H522 lung
SF-539 CNS = tested on: SF-539 CNS
SNB-78 CNS = tested on: SNB-78 CNS
A549 NSCLC = tested on: A549 NSCLC
DLD-1 colon = tested on: DLD-1 colon
UACC-62 melanoma = tested on: UACC-62 melanoma
A498 renal = tested on: A498 renal
OVCAR-8 ovarian = tested on: OVCAR-8 ovarian
ACHN renal = tested on: ACHN renal
SNB-75 CNS = tested on: SNB-75 CNS
SN12C renal = tested on: SN12C renal
EKVX NSCLC = tested on: EKVX NSCLC
KM20L2 colon = tested on: KM20L2 colon
M19-MEL melanoma = tested on: M19-MEL melanoma
SF-268 CNS = tested on: SF-268 CNS
SK-MEL-2 melanoma = tested on: SK-MEL-2 melanoma
NCI-H460 lung = tested on: NCI-H460 lung
HCC-2998 colon = tested on: HCC-2998 colon
SR leukemia = tested on: SR leukemia
SK-MEL-28 melanoma = tested on: SK-MEL-28 melanoma
IGROV1 ovarian = tested on: IGROV1 ovarian
MALME-3M melanoma = tested on: MALME-3M melanoma
U251 CNS = tested on: U251 CNS
OVCAR-5 ovarian = tested on: OVCAR-5 ovarian
OVCAR-3 ovarian = tested on: OVCAR-3 ovarian
DMS 273 small cell lung = tested on: DMS 273 small cell lung
LOX IMVI melanoma = tested on: LOX IMVI melanoma
XF 498 CNS = tested on: XF 498 CNS
COLO 205 colon = tested on: COLO 205 colon
MOLT-4 leukemia = tested on: MOLT-4 leukemia
UACC-257 melanoma = tested on: UACC-257 melanoma
HL-60(TB) leukemia = tested on: HL-60(TB) leukemia
SK-OV-3 ovarian = tested on: SK-OV-3 ovarian
CCRF-CEM leukemia = tested on: CCRF-CEM leukemia
SF-295 CNS = tested on: SF-295 CNS
HCT-116 colon = tested on: HCT-116 colon
HT29 colon = tested on: HT29 colon
NCI-H23 lung = tested on: NCI-H23 lung
RXF 393 renal = tested on: RXF 393 renal
SNB-19 CNS = tested on: SNB-19 CNS
TK-10 renal = tested on: TK-10 renal
SW-620 colon = tested on: SW-620 colon
KM12 colon = tested on: KM12 colon
OVCAR-4 ovarian = tested on: OVCAR-4 ovarian
M14 melanoma = tested on: M14 melanoma
K-562 leukemia = tested on: K-562 leukemia
HOP-92 NSCLC = tested on: HOP-92 NSCLC
LXFL 529 NSCLC = tested on: LXFL 529 NSCLC
RXF-631 renal = tested on: RXF-631 renal
HOP-62 NSCLC = tested on: HOP-62 NSCLC
RPMI-8226 leukemia = tested on: RPMI-8226 leukemia

Measured: TGI

Nc1nc(N)c2ncn(CCOC(c3ccccc3)P(=O)(O)O)c2n1 (stereo not drawn)
not listed: OVCAR-4 ovarian | M14 melanoma | K-562 leukemia | HOP-92 NSCLC | LXFL 529 NSCLC | RXF-631 renal | HOP-62 NSCLC | RPMI-8226 leukemia
> 100 µM: all other assays above

CC1(C)C(=O)C(C)(C)C1=NNC(N)=S
not listed: DLD-1 colon | A498 renal | EKVX NSCLC | SK-MEL-2 melanoma | CCRF-CEM leukemia
> 100 µM: all other assays above

Reference: PubChem BioAssay (NCI)
